Drawing on patent US20070155713A1, “Nitrogen-containing heterocyclic compounds and use thereof” (priority 2003, published 2007), this text covers IC50 for one molecule.

The assay deals with T1, human CCR5 (Homo sapiens, UniProt P51681).
T1 construct: expressed in transfected cells; host or cells: CHO-dhfr(-)
The assay is described as follows: Inhibition test on the binding of RANTES to CCR5 (RANTES-induced transient increase of Ca ion) in CCR5/CHO cells. It is filed as cell-based. The settings on record: human CCR5 stably over-expressing CHO cell; recombinant human RANTES 10 nM; intracellular Ca2+ transient increase (Fura-2AM). How it is done: (1) Isolation of Human CCR5 Gene Human placental cDNA was prepared using Marathon cDNA amplification kit (Clontech). PCR primers hCCR5Xbal-F1: Using the human placental cDNA as the template and using Ex Taq (Takara), PCR reaction (2 minutes at 95° C. {cube root}(30 seconds at 95° C., 45 seconds at 60° C., 1 minute at 72° C.)×35 times) was carried out. The thus amplified PCR product was subjected to a 1% agarose gel electrophoresis, purified using QIAquick Gel Extraction Kit (QUIAGEN) and then digested with a restriction enzyme XbaI. The digested fragments were ligated to an expression vector pEF-BOS-bsr using DNA Ligation Kit Ver. 2 (Takara) and transformed into Escherichia coli DH5α. By preparing the resulting plasmid pEF-BOS-bsr/hCCR5, its DNA sequence was verified. CHO-dhfr(−) was cultured using Ham's F-12 (containing fetal bovine serum (10%), penicillin (50 U/ml) and streptomycin ([…])). […] Transient increase in the intracellular Ca^2+ concentration induced by the human RANTES was measured using a Ca^2+ detector for 96 well use (Hamamatsu Photonics), and inhibition ratio (%) of the test compound was calculated by the following calculation formula. • Inhibition ratio=(Ec−Ea)/Ec×100 • Ec: measured value of Ca^2+ transient increase by RANTES • Ea: measured value of Ca^2+ transient increase by RANTES when a test compound was added.

Counter-ions that a name gives are not always drawn.

T1 sequence (P51681 whole entry): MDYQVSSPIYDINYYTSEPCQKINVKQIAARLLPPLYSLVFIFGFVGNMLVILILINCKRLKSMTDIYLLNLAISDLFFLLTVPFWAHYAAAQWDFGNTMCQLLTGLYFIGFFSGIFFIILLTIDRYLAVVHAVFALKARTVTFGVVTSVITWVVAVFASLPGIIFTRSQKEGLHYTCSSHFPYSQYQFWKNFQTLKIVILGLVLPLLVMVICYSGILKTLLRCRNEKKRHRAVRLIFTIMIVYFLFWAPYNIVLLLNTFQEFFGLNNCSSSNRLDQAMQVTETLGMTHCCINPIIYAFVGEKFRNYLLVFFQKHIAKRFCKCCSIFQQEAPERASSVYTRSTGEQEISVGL

In general, IC50 refers to the concentration at which inhibition is half-maximal. Regarding `CCCCN1C(=O)[C@H](CC2CCCCC2)NC(=O)C12CCN(Cc1ccccc1)CC2C` (stereo partly drawn) [Example 1, (3S)-9-benzyl-1-butyl-3-(cyclohexylmethyl)-7-methyl-1,4,9-triazaspiro[5.5]undecane-2,5-dione hydrochloride], the IC50 was 760 nM.
